We go through one substance from patent publication US7713926B2, “Method of producing partial peptide of enolase protein from Plasmodium falciparum” (National University Corporation Gunma University, priority 2004, dated 2010).

The experiment concerns antibodies existing in sera from Plasmodium falciparum malaria patients and non-infected individuals. Briefly: Fluorescent ELISA of human sera on plate-fixed peptide compound (antibody level). Type of experiment: binding. The note with it: peptide fixed on plastic plate as antigen. As for the experimental part:
An antigen solution was prepared by dissolving 500 μg of the peptide compound (SEQ ID NO: 13) synthesized in Example 10 in 100 μl of dimethyl sulfoxide and by subsequently adding 1900 μl of a 0.05 M carbonate buffer (pH 9.6). The prepared antigen solution was dispensed by […] in each of […] on a plastic plate for fixation of the peptide compound.
The sera collected from Plasmodium falciparum malaria patients under informed consent at hospitals in Japan were used as subject sera, and the sera collected from non-infected individuals under informed consent in Japan were used as control sera. The subject sera and the control sera were individually added to the wells on the plastic plate to allow the antibodies existing in the respective sera to react with the peptide compound (SEQ ID NO: 13).
After removal of the serum, an enzyme-labeled secondary antibody against human immunoglobulin was added to each well for the immunological reaction. […] The measured antibody levels were expressed by relative fluorescence unit (RFU values).
FIG. 7 is a graph showing antibody levels of sera (1-7) from Plasmodium falciparum-infected patients and those of sera (8-12) from non-infected individuals (for the purpose of comparison) measured by the fluorescent ELISA method with the synthesized peptide compound (SEQ ID NO: 13). […]
A general note: An ELISA detects its analyte on a solid surface through an enzyme-linked reagent.

“H-Glu-Glu-Glu-Glu-Ala-Ser-Glu-Phe-Tyr-Asn-Ser-Glu-Asn-Lys-Thr-Tyr-Asp-Leu-Asp-Phe-Lys-Thr-Pro-Asn-Asn-Asp-Gly-Gly-OH (H-EEEEASEFYNSENKTYDLDFKTPNNDGG-OH) [SEQ ID NO: 13, partial peptide of enolase from Plasmodium falciparum, used as ELISA antigen]”: the “average antibody level of the non-infected individuals” value (control sera (8-12) from non-infected individuals, same fluorescent ELISA) is given as 67 RFU. Further, the “average antibody level of the malaria patients” value (sera (1-7) from Plasmodium falciparum-infected patients, enzyme-labeled secondary antibody against human immunoglobulin, 4-methylumbelliferyl phosphate) came out at 181 RFU.
